Read-outs that look alike come from different tables or passages of the source.
Key:
[1] = system: Key Grass and Sedge Weeds as well as Grass Crops; test: Post-emergent Test II herbicidal activity (Table 6); type: in vivo; conditions: post-emergence, 336 h; for pest or weed control at 70 g/ha: application rate 70 g ai/ha; for pest or weed control at 140 g/ha: application rate 140 g ai/ha
Procedure, shortened: (§1)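 Visual injury ratings (0 = no injury, 100 = complete kill) were taken 14 d after treatment, relative to untreated plants. Seedlings at the first–second true leaf stage received overhead spray at 187 L/ha; the highest rate was serially diluted to ½×, ¼×, ⅛× and 1/16×.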

[2] = system: Key Broadleaf Weed and Crop Species; test: Post-emergent Test II herbicidal activity (Table 5); type: in vivo; conditions: post-emergence, 336 h, post-emergent, 14 days after application; for pest or weed control at 70 g/ha: 70 g ai/ha; for pest or weed control at 140 g/ha: 140 g ai/ha
Procedure, shortened: as §1

[3] = Triticum aestivum, TRZSS (wheat), read-out: Visual Growth Reduction (%) 14 Days After Application, TRZSS
[4] = CYPES: yellow nutsedge (Cyperus esculentus), read-out: Visual Growth Reduction (%) 14 Days After Application, CYPES
[5] = DIGSA: crabgrass (Digitaria sanguinalis), read-out: Visual Growth Reduction (%) 14 Days After Application, DIGSA
[6] = ECHCG: barnyardgrass (Echinochloa crus-galli), read-out: Visual Growth Reduction (%) 14 Days After Application, ECHCG
[7] = ORYSA: rice (Oryza sativa), read-out: Visual Growth Reduction (%) 14 Days After Application, ORYSA
[8] = SETFA: giant foxtail (Setaria faberi), read-out: Visual Growth Reduction (%) 14 Days After Application, SETFA
[9] = SORVU: grain sorghum (Sorghum vulgare), read-out: Visual Growth Reduction (%) 14 Days After Application, SORVU
[10] = ZEAMX: maize, corn (Zea mays), read-out: Visual Growth Reduction (%) 14 Days After Application, ZEAMX
[11] = ABUTH: velvetleaf (Abutilon theophrasti), read-out: Visual Growth Reduction (%) 14 Days After Application ABUTH
[12] = AMARE: redroot pigweed (Amaranthus retroflexus), read-out: Visual Growth Reduction (%) 14 Days After Application AMARE
[13] = BRSNN: oilseed-rape, canola (Brassica napus), read-out: Visual Growth Reduction (%) 14 Days After Application BRSNN
[14] = CHEAL: lambsquarters (Chenopodium album), read-out: Visual Growth Reduction (%) 14 Days After Application CHEAL
[15] = EPHHL: wild poinsettia (Euphorbia heterophylla), read-out: Visual Growth Reduction (%) 14 Days After Application EPHHL
[16] = HELAN: sunflower (Helianthus annuus), read-out: Visual Growth Reduction (%) 14 Days After Application HELAN
[17] = VIOTR: wild pansy (Viola tricolor), read-out: Visual Growth Reduction (%) 14 Days After Application VIOTR

Compound: COC(=O)c1nc(-c2ccc(C#N)c(F)c2)c(C)c(N)c1Cl [Compound 155, Methyl 4-amino-3-chloro-6-(4-cyano-3-fluorophenyl)-5-methylpicolinate]
- pest or weed control at 70 g/ha [1, 3]: 0 to 29%
- pest or weed control at 140 g/ha [1, 3]: 0 to 29%
- pest or weed control at 70 g/ha [1, 4]: 0 to 29%
- pest or weed control at 140 g/ha [1, 4]: 0 to 29%
- pest or weed control at 70 g/ha [1, 5]: 0 to 29%
- pest or weed control at 140 g/ha [1, 5]: 0 to 29%
- pest or weed control at 70 g/ha [1, 6]: 0 to 29%
- pest or weed control at 140 g/ha [1, 6]: 0 to 29%
- pest or weed control at 70 g/ha [1, 7]: 0 to 29%
- pest or weed control at 140 g/ha [1, 7]: 0 to 29%
- pest or weed control at 70 g/ha [1, 8]: 0 to 29%
- pest or weed control at 140 g/ha [1, 8]: 0 to 29%
- pest or weed control at 70 g/ha [1, 9]: 0 to 29%
- pest or weed control at 140 g/ha [1, 9]: 0 to 29%
- pest or weed control at 70 g/ha [1, 10]: 0 to 29%
- pest or weed control at 140 g/ha [1, 10]: 0 to 29%
- pest or weed control at 70 g/ha [2, 11]: 0 to 29%
- pest or weed control at 140 g/ha [2, 11]: 0 to 29%
- pest or weed control at 70 g/ha [2, 12]: 0 to 29%
- pest or weed control at 140 g/ha [2, 12]: 0 to 29%
- pest or weed control at 70 g/ha [2, 13]: 45 to 59%
- pest or weed control at 140 g/ha [2, 13]: 60 to 74%
- pest or weed control at 70 g/ha [2, 14]: 85 to 94%
- pest or weed control at 140 g/ha [2, 14]: 95 to 100%
- pest or weed control at 70 g/ha [2, 15]: 0 to 29%
- pest or weed control at 140 g/ha [2, 15]: 0 to 29%
- pest or weed control at 70 g/ha [2, 16]: 85 to 94%
- pest or weed control at 140 g/ha [2, 16]: 85 to 94%
- pest or weed control at 70 g/ha [2, 17]: 0 to 29%
- pest or weed control at 140 g/ha [2, 17]: 0 to 29%

Reference: patent US9113629B2, “4-amino-6-(4-substituted-phenyl)-picolinates and 6-amino-2-(4-substituted-phenyl)-pyrimidine-4-carboxylates and their use as herbicides” (DOW AGROSCIENCES LLC, priority 2013, dated 2015)
